IC50 data for 2 compounds are collected here from ChEMBL document CHEMBL4406812, “Synthesis of quinones with highlighted biological applications: A critical update on the strategies towards bioactive compounds with emphasis on lapachones” (Eur J Med Chem, 2019).

The subject of assay [1] is PC-3. Nature of the assay: Cytotoxicity against human PC3 cells assessed as reduction in cell viability after 48 hrs. It counts as functional, cell-based. Conditions: PC-3, 48 h.
For assay [2], the system named is OVCAR-8. Nature of the assay: Cytotoxicity against human OVCAR8 cells assessed as reduction in cell viability after 48 hrs. It counts as functional, cell-based. The note with it: OVCAR-8, 48 h.
Assay [3] deals with MDA-MB-435. Nature of the assay: Cytotoxicity against human MDA-MB-435 cells assessed as reduction in cell viability after 48 hrs. It counts as functional, cell-based. Conditions: MDA-MB-435, 48 h.
For assay [4], the system named is HL-60. Nature of the assay: Cytotoxicity against human HL60 cells assessed as reduction in cell viability after 48 hrs. It counts as functional, cell-based. Conditions: HL-60, 48 h.
Assay [5] concerns SF-295. Nature of the assay: Cytotoxicity against human SF295 cells assessed as reduction in cell viability after 48 hrs. The note with it: SF-295, 48 h. It counts as functional, cell-based.
The subject of assay [6] is HCT-116. Description: Cytotoxicity against human HCT116 cells assessed as reduction in cell viability after 48 hrs. It counts as functional, cell-based. Conditions: HCT-116, 48 h.
Assay [7] relates to NCI-H460. Description: Anticancer activity against human NCI-H460 cells. It counts as functional, cell-based.
The test system of assay [8] is SF-295. Description: Anticancer activity against human SF295 cells. It counts as functional, cell-based.
Assay [9] deals with HL-60. Description: Anticancer activity against human HL60 cells. It counts as functional, cell-based.
The test system of assay [10] is SW-620. Nature of the assay: Anticancer activity against human SW620 cells. It counts as functional, cell-based.
In assay [11] the test system is MX1. Nature of the assay: Anticancer activity against human MX1 cells. It counts as functional, cell-based.
Assay [12] deals with Jurkat. Description: Anticancer activity against human Jurkat cells. It counts as functional, cell-based.
Assay [13] concerns PBMC. Description: Cytotoxicity against human PBMC. It counts as cell-based.
In assay [14] the test system is HCT-116. Nature of the assay: Anticancer activity against human HCT116 cells. It counts as functional, cell-based.
In assay [15] the test system is MOLT-4. Description: Anticancer activity against human MOLT4 cells. It counts as functional, cell-based.
The test system of assay [16] is DU-145. Nature of the assay: Anticancer activity against human DU145 cells. It counts as functional, cell-based.
Assay [17] relates to SF-268. Description: Anticancer activity against human SF268 cells. It counts as functional, cell-based.
Assay [18] concerns Hs-578T. Description: Anticancer activity against human Hs578T cells. It counts as functional, cell-based.
The test system of assay [19] is MDA-MB-231. Nature of the assay: Anticancer activity against human MDA-MB-231 cells. It counts as functional, cell-based.
The test system of assay [20] is PC-3. Description: Anticancer activity against human PC3 cells. It counts as functional, cell-based.
In assay [21] the test system is MDA-MB-435. Description: Anticancer activity against human MDA-MB-435 cells. It counts as functional, cell-based.
The subject of assay [22] is UACC-62. Description: Anticancer activity against human UACC62 cells. It counts as functional, cell-based.
For assay [23], the system named is K562. Nature of the assay: Anticancer activity against human K562 cells. It counts as functional, cell-based.
Assay [24] concerns HCT-8. Description: Anticancer activity against human HCT8 cells. It counts as functional, cell-based.

Consider `CC1(C)OC2=C(C(=O)C(=O)c3ccccc32)C1Nc1cccc(-c2cn(C[Se]c3ccccc3)nn2)c1` (centres undefined), for which the concentration for half-maximal inhibition (IC50) in [1], in [2], in assay [3], in [4], in [5] and in assay [6] was below 100 nM throughout.
As for `Cc1cc(C)n2c1C(c1ccc(OCc3cn(C4C5=C(OC4(C)C)c4ccccc4C(=O)C5=O)nn3)cc1)=C1C=CC=[N+]1[B-]2(F)F` (centres undefined), the half-maximal inhibitory concentration (IC50) in assay [7], in assay [8], in assay [9], in assay [10], in [11] and in assay [12] was 340 to 2170 nM in each case. Also, the 50% inhibitory concentration (IC50) (in general, the point on the concentration scale where inhibition reaches its midpoint) is 3260 nM in assay [13]; 340 to 2170 nM in [14]; 340 to 2170 nM in [15]; 340 to 2170 nM in assay [16]; 340 to 2170 nM in assay [17]; 340 to 2170 nM in [18]. For the same compound, the concentration for half-maximal inhibition (IC50) in [19], in assay [20], in assay [21], in assay [22], in assay [23] and in assay [24] was 340 to 2170 nM throughout.
